“And” between values parts separate entries of the source, which are not always exact repeats. Equal values may be shown once.
Molecular target: T1, N-terminal 6His-tagged ROCK2 catalytic domain 11-552 (Homo sapiens, UniProt O75116)
T1 construct: N-terminal 6His-tagged ROCK2 catalytic domain 11-552; 6His (N); purchased Dundee University, UK; host or cells: baculovirus expression system
Experiment: ROCK2 binding activity: ROCK2 inhibition, ADP-Glo Kinase Assay
Type: biochemical
Conditions: 1.25 nM ROCK2, 100 μM long S6 peptide, 20 μM ATP; 1 hour pre-incubation; read-out: ADP-Glo kinase activity assay ROCK2 Category
Outline: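 1.25 nM baculovirus-expressed ROCK2 pre-incubated 1 h with compound (1% DMSO), then 100 μM long S6 peptide and 20 μM ATP added for 1 h; 50 mM HEPES pH 7.5, 10 mM Mg acetate, 1 mM DTT. ADP-Glo luminescence; IC50 from four-parameter logistic fit.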

T1 sequence (O75116 11-552): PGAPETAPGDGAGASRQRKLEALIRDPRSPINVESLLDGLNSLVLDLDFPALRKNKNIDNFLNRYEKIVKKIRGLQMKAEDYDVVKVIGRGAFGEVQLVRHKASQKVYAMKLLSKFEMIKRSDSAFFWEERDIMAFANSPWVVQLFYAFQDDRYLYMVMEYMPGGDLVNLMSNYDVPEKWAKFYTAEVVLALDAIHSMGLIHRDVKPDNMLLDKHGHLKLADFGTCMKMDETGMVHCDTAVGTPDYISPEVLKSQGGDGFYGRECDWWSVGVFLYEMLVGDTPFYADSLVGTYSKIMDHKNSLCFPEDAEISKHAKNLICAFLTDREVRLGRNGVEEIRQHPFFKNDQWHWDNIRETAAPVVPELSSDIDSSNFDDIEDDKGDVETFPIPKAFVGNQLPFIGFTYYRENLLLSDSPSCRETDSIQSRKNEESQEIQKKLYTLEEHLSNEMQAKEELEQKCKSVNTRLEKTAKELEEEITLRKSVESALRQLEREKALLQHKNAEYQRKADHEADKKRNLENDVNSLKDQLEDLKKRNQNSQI

SMILES	IC50
Cn1nc(-c2ccc(C(=O)NCC3CC3)cc2)nc1Nc1ccc2[nH]ncc2c1C1CC1 [Example 283]	< 0.3 µM
COc1cc(-c2nc(Nc3ccc4[nH]ncc4c3Cl)n(C)n2)ccc1C(=O)NC1CCOCC1 [Example 196]	< 0.3 µM
Cn1nc(-c2c[nH]c3ccncc23)nc1Nc1ccc2[nH]ncc2c1Cl [Example 121]	3 to 10 µM
CCOC(=O)c1cncc(-c2nc(Nc3ccc4[nH]ncc4c3Cl)n(C)n2)c1 [Example 90]	< 0.3 µM
CCC(=O)Nc1ccc(-c2nc(Nc3ccc4[nH]ncc4c3Cl)n(C)n2)cc1OC [Example 83]	< 0.3 µM
CC(C)NC(=O)CCn1ccc(-c2nnc(Nc3ccc4[nH]ncc4c3)[nH]2)cc1=O [Example 33]	> 10 µM
COc1cc(-c2nc(Nc3ccc4[nH]ncc4c3)n(CCN3CCOCC3)n2)ccc1OCC(=O)NC(C)C [Example 446]	< 0.3 µM
Cn1nc(-c2ccc(C(=O)NCC3CCCO3)cc2)nc1Nc1ccc2[nH]ncc2c1Cl (centres unmarked) [Example 106]	< 0.3 µM
Cn1nc(-c2cn[nH]c2)nc1Nc1ccc2[nH]ncc2c1Cl [Example 111]	0.3 to 3 µM
Cn1nc(-c2ccc(C(=O)NCC(F)(F)F)cc2)nc1Nc1ccc2[nH]nc(Cl)c2c1 [Example 430]	< 0.3 µM
C=C(C)c1c(Nc2nc(-c3ccc(C(=O)NCC)cc3)nn2C)ccc2[nH]ncc12 [Example 459, N-ethyl-4-[5-[(4-isopropenyl-1H-indazol-5-yl)amino]-1-methyl-1,2,4-triazol-3-yl]benzamide]	< 0.3 µM
CC(C)NC(=O)COc1c(F)cc(-c2nc(Nc3ccc4[nH]ncc4c3)n(C)n2)cc1F [Example 415]	< 0.3 µM
Cc1cc(-c2nc(Nc3ccc4[nH]ncc4c3Cl)n(C)n2)ccc1OCC(=O)NC(C)C [Example 350]	< 0.3 µM
CC(C)NC(=O)COc1ccc(-c2nc(Nc3ccc4[nH]ncc4c3)n(C)n2)c(Cl)c1 [Example 407]	< 0.3 µM
COc1cc(-c2nc(Nc3ccc4[nH]ncc4c3C3CC3)n(C)n2)ccc1C(=O)NC1CCN(CC(F)(F)F)C1 (centres unmarked) [Example 376]	< 0.3 µM
CC(C)NC(=O)COc1ccc(-c2nc(Nc3ccc4[nH]ncc4c3Cl)n(C)n2)cc1F [Example 474]	< 0.3 µM
COc1cc(-c2nc(Nc3ccc4[nH]ncc4c3Cl)n(C)n2)ccc1C(=O)NC1CN(C)C1 [Example 267]	< 0.3 µM
COCCn1nc(-c2ccc(C(=O)NCC(F)(F)F)c(C)c2)nc1Nc1ccc2[nH]ncc2c1C1CC1 [Example 337]	< 0.3 µM
CCc1c(Nc2nc(-c3ccc(C(=O)NC(C)C)cc3)nn2C)ccc2[nH]ncc12 [Example 318]	< 0.3 µM
COc1cc(-c2nc(Nc3ccc4[nH]ncc4c3C)n(C)n2)ccc1OCC(=O)NC1CCNC1 (centres unmarked) [Example 141]	< 0.3 µM
COc1cc(-c2nc(Nc3ccc4[nH]ncc4c3C)n(C)n2)ccc1C(=O)NC(C)(C)C [Example 181]	< 0.3 µM
CCNC(=O)c1ccc(-c2nc(Nc3ccc4[nH]ncc4c3C3CC3)n(C)n2)cc1F [Example 387]	< 0.3 µM
COc1cc(-c2nc(Nc3cc4cn[nH]c4cc3F)n(C)n2)ccc1C(=O)NC(C)(C)C [Example 432]	3 to 10 µM
CCNC(=O)c1ccc(-c2nc(Nc3ccc4[nH]ncc4c3Cl)n(C)n2)cn1 [Example 370]	< 0.3 µM

SMILES	IC50
COc1cc(-c2nnc(Nc3ccc4[nH]ncc4c3)n2-c2ccccn2)ccc1OCC(=O)NC(C)C [Example 147]	< 0.3 µM
COc1cc(-c2nc(Nc3ccc4[nH]ncc4c3Cl)n(C)n2)ccc1C(=O)NC(C)C [Example 193, 4-[5-[(4-chloro-1H-indazol-5-yl)amino]-1-methyl-1,2,4-triazol-3-yl]-N-isopropyl-2-methoxy-benzamide]	< 0.3 µM
CCNC(=O)c1ccc(-c2nc(Nc3ccc4[nH]ncc4c3)n(C)n2)c(C)c1 [Example 399]	< 0.3 µM
O=C(COc1ccc(-c2nnc(Nc3ccc4[nH]ncc4c3)[nH]2)cc1)NC1COC1 [Example 164]	< 0.3 µM
CC(=O)N1CCc2cc(-c3nc(Nc4ccc5[nH]ncc5c4C4CC4)n(C)n3)ccc2C1C (centres unmarked) [Example 248, 1-[6-[5-[(4-cyclopropyl-1H-indazol-5-yl)amino]-1-methyl-1,2,4-triazol-3-yl]-1-methyl-3,4-dihydro-1H-isoquinolin-2-yl]ethanone]	< 0.3 µM
CC(C)NC(=O)COc1ccc(-c2nnc(Nc3ccc4[nH]ncc4c3)[nH]2)cc1Cl [Example 38]	< 0.3 µM
COc1cc(-c2nc(Nc3ccc4[nH]ncc4c3Cl)n(C)n2)ccc1C(=O)NCC(F)(F)F [Example 201]	< 0.3 µM
COc1cc(-c2nc(Nc3ccc4[nH]ncc4c3Cl)n(C)n2)ccc1OCC(=O)NC1CCCC1 [Example 217]	< 0.3 µM
COc1cc(-c2nc(Nc3ccc4[nH]ncc4c3Cl)n(C)n2)ccc1C(=O)NC1CCS(=O)(=O)C1 (centres unmarked) [Example 200]	< 0.3 µM
CC(C)NC(=O)COc1ccc(-c2nnc(Nc3ccc4[nH]ncc4c3)[nH]2)cc1 [Example 7]	< 0.3 µM
Cn1nccc1-c1nc(Nc2ccc3[nH]ncc3c2Cl)n(C)n1 [Example 134]	0.3 to 3 µM
CC(=O)NCc1ccc(-c2nc(Nc3ccc4[nH]ncc4c3Cl)n(C)n2)cc1 [Example 73]	0.3 to 3 µM
COCCOc1cccc(-c2nc(Nc3ccc4[nH]ncc4c3Cl)n(C)n2)c1 [Example 85]	< 0.3 µM
Cc1cc(-c2nc(Nc3ccc4[nH]ncc4c3Cl)n(C)n2)ccc1C(=O)NCC(F)(F)F [Example 366]	< 0.3 µM
CCc1c(Nc2nc(-c3ccc(C(=O)NCC(F)(F)F)cc3)nn2C)ccc2[nH]ncc12 [Example 423]	< 0.3 µM
COC(=O)c1ccc(-c2nc(Nc3ccc4[nH]ncc4c3C3CC3)n(C)n2)cc1OC [Example 375]	< 0.3 µM
CC(C)NC(=O)COc1ccc(-c2nnc(Nc3ccc4[nH]ncc4c3)[nH]2)cn1 [Example 29]	0.3 to 3 µM
Cc1c(Nc2nc(-c3ccc(C(=O)NCC(F)(F)F)c(F)c3F)nn2C)ccc2[nH]ncc12 [Example 419]	< 0.3 µM
CC(C)n1nccc1-c1nc(Nc2ccc3[nH]ncc3c2Cl)n(C)n1 [Example 112]	0.3 to 3 µM
CC(C)NC(=O)COc1ccc(-c2nnc(Nc3ccc4[nH]ncc4c3)[nH]2)c(F)c1 [Example 25]	0.3 to 3 µM
COc1cc(-c2nc(Nc3ccc4[nH]ncc4c3C3CC3)n(C)n2)ccc1OCC(=O)NC(C)C [Example 274]	< 0.3 µM
CC(O)Cn1nc(-c2ccc(C(=O)NCC(F)(F)F)cc2)nc1Nc1ccc2[nH]ncc2c1C1CC1 (centres unmarked) [Example 444]	< 0.3 µM
Cn1nc(-c2ccc(C(=O)NC3(C)CC3)cc2)nc1Nc1ccc2[nH]ncc2c1C1CC1 [Example 294]	< 0.3 µM
CNC(=O)c1ccc(-c2nc(Nc3ccc4[nH]ncc4c3Cl)n(C)n2)cn1 [Example 124]	< 0.3 µM

SMILES	IC50
COc1cc(-c2nc(Nc3ccc4[nH]ncc4c3Cl)n(C)n2)ccc1OCC(=O)NC(C)(C)C [Example 204, N-tert-butyl-2-[4-[5-[(4-chloro-1H-indazol-5-yl)amino]-1-methyl-1,2,4-triazol-3-yl]-2-methoxy-phenoxy]acetamide]	< 0.3 µM
CCNC(=O)c1ccc(-c2nc(Nc3ccc4[nH]ncc4c3Cl)n(C)n2)cc1C(F)(F)F [Example 345]	3 to 10 µM
COc1cc(-c2nc(Nc3ccc4[nH]ncc4c3F)n(C)n2)ccc1C(=O)NCC(F)(F)F [Example 184]	0.3 to 3 µM and < 0.3 µM
COc1cc(-c2nc(Nc3cnc4[nH]ncc4c3)n(C)n2)ccc1C(=O)NCC(F)(F)F [Example 330]	< 0.3 µM
Cc1cc(-c2nc(Nc3ccc4[nH]ncc4c3Cl)n(C)n2)n(C)n1 [Example 107]	0.3 to 3 µM
CC(C)NC(=O)COc1ccc(-c2nc(Nc3ccc4[nH]ncc4c3Cl)n(C)n2)c(C#N)c1 [Example 351]	< 0.3 µM
Cn1nc(-c2cccc(C#N)c2)nc1Nc1ccc2[nH]ncc2c1Cl [Example 110]	0.3 to 3 µM
CC1CC1NC(=O)c1ccc(-c2nc(Nc3ccc4[nH]ncc4c3C3CC3)n(C)n2)cc1 (centres unmarked) [Example 312]	< 0.3 µM
CNC(=O)c1ccc(-c2nc(Nc3ccc4[nH]ncc4c3Cl)n(C)n2)cc1OC [Example 174]	< 0.3 µM
Cn1nc(-c2ccc(C(=O)NC3CCC3)cc2)nc1Nc1ccc2[nH]ncc2c1Cl [Example 176]	< 0.3 µM
Cn1ccc(-c2nc(Nc3ccc4[nH]ncc4c3Cl)n(C)n2)n1 [Example 119]	3 to 10 µM
Cn1nc(-c2ccccc2O)nc1Nc1ccc2[nH]ncc2c1Cl [Example 89]	< 0.3 µM
COC(=O)c1ccc(-c2nc(Nc3ccc4[nH]ncc4c3Cl)n(C)n2)cc1 [Example 56]	< 0.3 µM
Cn1nc(C2=CCCNC2)nc1Nc1ccc2[nH]ncc2c1Cl [Example 81]	3 to 10 µM
Cn1nc(-c2ccc(S(=O)(=O)N3CCOCC3)cc2)nc1Nc1ccc2[nH]ncc2c1Cl [Example 78]	3 to 10 µM
Cn1nc(-c2cncc(N)c2)nc1Nc1ccc2[nH]ncc2c1Cl [Example 130]	< 0.3 µM
CC(C)NC(=O)c1ccc(-c2nc(Nc3ccc4[nH]ncc4c3C3CC3)n(C)n2)cc1 [Example 295]	< 0.3 µM
CC(C)NC(=O)COc1ccc(-c2nc(Nc3ccc4[nH]ncc4c3)n(C)n2)cc1Cl [Example 250, 2-[2-chloro-4-[5-(1H-indazol-5-ylamino)-1-methyl-1,2,4-triazol-3-yl]phenoxy]-N-isopropyl-acetamide]	< 0.3 µM
COc1cc(-c2nc(Nc3ccc4[nH]ncc4c3Cl)n(C)n2)ccc1OCC(=O)N[C@H](C)C(F)(F)F [Example 219]	< 0.3 µM
Cn1nc(-c2ccc(C3=NCC(C)(C)O3)cc2)nc1Nc1ccc2[nH]ncc2c1C1CC1 [Example 287]	< 0.3 µM
CNC(=O)c1ccc(-c2nc(Nc3ccc4[nH]ncc4c3Cl)n(C)n2)cc1 [Example 62]	< 0.3 µM
Cn1nc(-c2ccc3c(c2)COC3=O)nc1Nc1ccc2[nH]ncc2c1C1CC1 [Example 381]	< 0.3 µM
COc1cc(-c2nc(Nc3ccc4[nH]ncc4c3F)n(C)n2)ccc1C(=O)NC(C)(C)C [Example 336]	< 0.3 µM

— patent publication US11497751B2, “Modulators of Rho-associated protein kinase” (Redx Pharma PLC, priority 2018, dated 2022)
